{"source": "patent US20050137166A1", "about": "“Use of cooling agents to relieve mild ocular irritation and enhance comfort” (Alcon, Inc., priority 2003, published 2005)", "key": {"[1]": {"test_system": "mouth", "settings": "versus menthol; cited from earlier work"}, "[2]": {"test_system": "skin", "settings": "versus menthol; cited from earlier work"}, "[3]": {"test_system": "eyes of human patients", "experiment": "Cooling sensation of compositions topically applied to the eyes of human patients", "type": "in vivo", "settings": "for ability to produce a cooling sensation: human patients", "protocol": "(§1) Compositions containing the cooling agents WS-3 and WS-23 in the vehicle described in Example 1 were prepared. The compositions were evaluated relative to the ability to produce a cooling sensation when topically applied to the eyes of human patients. The compositions were also evaluated with respect to the creation of ocular discomfort."}, "[4]": {"test_system": "eyes of human patients", "experiment": "Creation of ocular discomfort after topical application to the eyes of human patients", "type": "in vivo", "protocol": "as §1"}, "[5]": {"settings": "WS-3 at 2 ppm to 5 ppm in the vehicle of Example 1, topical ocular"}, "[6]": {"settings": "ophthalmic composition, ocular cooling"}, "[7]": {"settings": "WS-23 at 10 ppm to 20 ppm in the vehicle of Example 1, topical ocular"}}, "data": [{"smiles": "CC1=C(N2CCCC2)C(=O)OC1", "note": "[4-methyl-3-(1-pyrrolididinyl)-2[5H]-furanone]", "values": [{"measurement": "cooling power relative to menthol, in the mouth", "setting": "[1]", "result": "thirty-five"}, {"measurement": "cooling power relative to menthol, on the skin", "setting": "[2]", "result": "over 500 times"}]}, {"smiles": "CCNC(=O)C1CC(C)CCC1C(C)C", "note": "(centres unmarked) [WS-3, Cyclohexanecarboxamide, N-ethyl-5-methyl-2-(1-methylethyl)]", "values": [{"measurement": "ability to produce a cooling sensation", "setting": "[3]; [5]", "result": "refreshing"}, {"measurement": "optimal concentration", "setting": "[3]; [6]", "result": "1 to 5", "unit": "PPM"}, {"measurement": "ocular discomfort / tolerability", "setting": "[4]; [5]", "result": "comfortable and well tolerated"}]}, {"smiles": "CNC(=O)C(C)(C(C)C)C(C)C", "note": "[WS-23, N,2,3-Trimethyl-2-isopropylbutamide]", "values": [{"measurement": "ability to produce a cooling sensation", "setting": "[3]; [7]", "result": "produced a cooling effect"}, {"measurement": "concentration at which most effective", "setting": "[3]; [6]", "result": "10 to 20", "unit": "ppm"}, {"measurement": "ocular discomfort", "setting": "[4]; [7]", "result": "comfortable"}]}]}
